Data set [1] can be described thus: Half life in mouse at 10 mg/kg, po by LC-MS/MS analysis. The format is ADME, organism-based. As to conditions: in vivo.
For data set [2], the system named is MC-38. The experiment in a line: In vivo antitumor activity against mouse MC-38 cells inoculated in C57BL/6 mouse assessed as complete tumor regression (CR) at 60 mg/kg, po Q3D measured for 15 to 20 days. The data set is classed as functional, organism-based. As to conditions: time 15-20 day.
For another data set, the system named is THP1-Blue ISG. In words: Induction of STING phosphorylation in human THP1-Blue ISG cells at 13 to 50 uM measured after 3 hrs by Western blot analysis. As to conditions: filed as agonist, dose 13-50 µM. The data set is classed as cell-based. (Immunoblotting shows a protein as a band on a membrane.)
Data set [3] concerns MC-38. In words: In vivo antitumor activity against mouse MC-38 cells inoculated in C57BL/6 mouse assessed as increase in IL-6 level in tumor at 60 mg/kg, po Q3D co-administered with anti-PD1 measured for 15 to 20 days. The conditions noted are these: time 15-20 day. The data set is classed as functional, organism-based.
Data set [4] deals with T1, Interferon regulatory factor 3 (Homo sapiens) (UniProt Q14653).
T1 sequence (whole entry): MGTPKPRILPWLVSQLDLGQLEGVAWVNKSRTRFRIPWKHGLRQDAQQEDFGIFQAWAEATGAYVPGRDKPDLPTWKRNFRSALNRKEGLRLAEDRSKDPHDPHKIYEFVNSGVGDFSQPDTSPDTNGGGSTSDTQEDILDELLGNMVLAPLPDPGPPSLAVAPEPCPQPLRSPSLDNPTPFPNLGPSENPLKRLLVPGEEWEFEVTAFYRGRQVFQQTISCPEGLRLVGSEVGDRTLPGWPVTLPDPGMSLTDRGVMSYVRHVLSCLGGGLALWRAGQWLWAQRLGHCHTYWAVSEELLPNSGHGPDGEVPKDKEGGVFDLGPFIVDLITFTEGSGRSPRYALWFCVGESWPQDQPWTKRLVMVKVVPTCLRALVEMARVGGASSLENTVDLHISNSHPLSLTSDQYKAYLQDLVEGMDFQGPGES
The experiment in a line: Induction of IRF3 phosphorylation in human THP1-Blue ISG cells at 13 to 50 uM measured after 3 hrs by Western blot analysis. The format is cell-based. The conditions noted are these: filed as agonist, dose 13-50 µM.

For data set [5], the system named is MC-38. In words: In vivo antitumor activity against mouse MC-38 cells inoculated in C57BL/6 mouse assessed as increase in IFN-gamma level in serum at 60 mg/kg, po Q3D co-administered with anti-PD1 measured for 15 to 20 days. The format is functional, organism-based. The conditions noted are these: time 15-20 day.
Data set [6] in a line: Half life in mouse at 5 mg/kg, iv by LC-MS/MS analysis. The data set is classed as ADME, organism-based. The conditions noted are these: in vivo.
Data set [7] can be described thus: AUC in mouse at 10 mg/kg, po by LC-MS/MS analysis. The data set is classed as ADME, organism-based. The conditions noted are these: in vivo.
Data set [8] deals with MC-38. The experiment in a line: In vivo antitumor activity against mouse MC-38 cells inoculated in C57BL/6 mouse assessed as increase in IL-6 level in serum at 60 mg/kg, po Q3D co-administered with anti-PD1 measured for 15 to 20 days. The data set is classed as functional, organism-based. As to conditions: time 15-20 day.
Data set [9] can be described thus: Stability of the compound in mouse plasma assessed as half life by LC-MS/MS analysis. The format is ADME, cell-free.
Data set [10] can be described thus: Chemical stability of the compound in MeOH/H2O solvent assessed as half life by LC-MS/MS analysis. The format is physicochemical.
The nature of data set [11]: Clearance in mouse at 10 mg/kg, po by LC-MS/MS analysis. The data set is classed as ADME, organism-based. As to conditions: in vivo.
Data set [12] deals with MC-38. The experiment in a line: In vivo antitumor activity against mouse MC-38 cells inoculated in C57BL/6 mouse assessed as increase in CXCL10 level in tumor at 60 mg/kg, po Q3D co-administered with anti-PD1 measured for 15 to 20 days. The data set is classed as functional, organism-based. As to conditions: time 15-20 day.
A short description of data set [13]: Stability of the compound in human plasma assessed as half life by LC-MS/MS analysis. The data set is classed as ADME, cell-free.
Data set [14] in a line: Metabolic stability in mouse liver microsomes assessed as half life at 10 uM measured up to 60 mins by LC-MS/MS analysis. The data set is classed as ADME, Microsome. In general terms: Liver microsomes are vesicles of endoplasmic reticulum, rich in cytochrome P450 enzymes.
For data set [15], the system named is MC-38. In words: In vivo antitumor activity against mouse MC-38 cells inoculated in C57BL/6 mouse assessed as increase in IFN-gamma level in tumor at 60 mg/kg, po Q3D co-administered with anti-PD1 measured for 15 to 20 days. The format is functional, organism-based. The conditions noted are these: time 15-20 day.
In data set [16] the test system is MC-38. The experiment in a line: In vivo antitumor activity against mouse MC-38 cells inoculated in C57BL/6 mouse assessed as as increase in moue survival time at 60 mg/kg, po Q3D measured for 15 to 20 days. The format is functional, organism-based. The conditions noted are these: time 15-20 day.
Data set [17] in a line: Metabolic stability in human liver microsomes assessed as half life at 10 uM measured up to 60 mins by LC-MS/MS analysis. The data set is classed as ADME, Microsome.
Data set [18] has as its system THP-1. In words: Induction of interferon secretion in human THP-1 cells assessed as IFN-beta level at 13 uM measured after 24 hrs by ELISA. The data set is classed as functional, cell-based. In general terms: An ELISA detects its analyte on a solid surface through an enzyme-linked reagent.
Data set [19] in a line: Cmax in mouse at 10 mg/kg, po by LC-MS/MS analysis. The format is ADME, organism-based. The conditions noted are these: in vivo.
For data set [20], the system named is MC-38. In words: In vivo antitumor activity against mouse MC-38 cells inoculated in C57BL/6 mouse assessed as complete tumor regression (CR) at 60 mg/kg, po two doses measured for 15 to 20 days relative to total number of mouse. The data set is classed as functional. As to conditions: time 15-20 day.
In data set [21] the target is T2, Stimulator of interferon genes protein (Homo sapiens, UniProt Q86WV6). The experiment in a line: Agonist activity at STING R232 mutant (unknown origin) expressed in human THP1-Dual cells assessed as fold change in stimulation activity measured after 24 hrs incubation by QUANTI-Luc4 based microplate reader. The data set is classed as cell-based.
Target sequence in this assay (Q86WV6 whole entry, looked up, change not shown): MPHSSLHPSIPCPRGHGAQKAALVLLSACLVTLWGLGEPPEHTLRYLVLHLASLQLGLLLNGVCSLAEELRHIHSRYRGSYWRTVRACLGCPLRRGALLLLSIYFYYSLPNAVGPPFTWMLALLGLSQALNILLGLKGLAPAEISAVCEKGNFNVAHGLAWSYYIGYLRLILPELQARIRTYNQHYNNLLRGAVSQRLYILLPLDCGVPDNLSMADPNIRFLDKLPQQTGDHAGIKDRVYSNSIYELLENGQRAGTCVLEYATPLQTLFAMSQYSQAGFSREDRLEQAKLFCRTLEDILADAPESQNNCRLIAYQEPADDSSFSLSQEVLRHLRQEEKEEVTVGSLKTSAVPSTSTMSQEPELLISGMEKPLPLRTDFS
Data set [22] in a line: AUC in mouse at 5 mg/kg, iv by LC-MS/MS analysis. As to conditions: in vivo. The format is ADME, organism-based.
In data set [23] the test system is MC-38. In words: In vivo antitumor activity against mouse MC-38 cells inoculated in C57BL/6 mouse assessed as increase in CXCL10 level in serum at 60 mg/kg, po Q3D co-administered with anti-PD1 measured for 15 to 20 days. The format is functional, organism-based. The conditions noted are these: time 15-20 day.
Data set [24] in a line: Oral bioavailability in mouse at 10 mg/kg by LC-MS/MS analysis. The format is ADME, organism-based. As to conditions: in vivo.
Data set [25] is described as follows: Cmax in mouse at 5 mg/kg, iv by LC-MS/MS analysis. The data set is classed as ADME, organism-based. The conditions noted are these: in vivo.
Data set [26] has as its system THP-1. In words: Induction of interferon response in STING knock out human THP-1 cells assessed as fold change in stimulation activity at 13 to 25 uM measured after 24 hrs incubation by QUANTI-Luc4 based microplate reader. The format is functional, cell-based. As to conditions: dose 13-25 µM.
A short description of data set [27]: Clearance in mouse at 5 mg/kg, iv by LC-MS/MS analysis. The data set is classed as ADME, organism-based. As to conditions: in vivo.
In data set [28] the test system is MC-38. The experiment in a line: In vivo antitumor activity against mouse MC-38 cells inoculated in C57BL/6 mouse assessed as long-term immunological memory by measuring tumor recurrence at 60 mg/kg, po Q3D measured for 15 to 20 days followed by cured rechallenged with MC-38 cells after 84 days of first dose and measured for additional 74 days (total 157 days observation). The conditions noted are these: time 157.0 day. The data set is classed as functional, organism-based.

Data set [29] addresses T3, Stimulator of interferon genes protein (Mus musculus, UniProt Q3TBT3).
T3 sequence (Q3TBT3 whole entry): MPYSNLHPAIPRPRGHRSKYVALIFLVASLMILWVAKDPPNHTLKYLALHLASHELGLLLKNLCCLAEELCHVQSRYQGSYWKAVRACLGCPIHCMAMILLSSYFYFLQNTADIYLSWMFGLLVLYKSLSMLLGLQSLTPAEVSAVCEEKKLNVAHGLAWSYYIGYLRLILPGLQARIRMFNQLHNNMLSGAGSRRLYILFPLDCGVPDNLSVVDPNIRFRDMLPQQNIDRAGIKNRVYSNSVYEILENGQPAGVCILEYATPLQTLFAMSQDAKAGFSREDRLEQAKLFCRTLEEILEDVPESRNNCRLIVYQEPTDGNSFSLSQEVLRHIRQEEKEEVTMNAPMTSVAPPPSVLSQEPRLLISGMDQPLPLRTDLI
The experiment in a line: Agonist activity at mouse STING expressed in human THP1-Dual cells assessed as fold change in stimulation activity measured after 24 hrs incubation by QUANTI-Luc4 based microplate reader. The format is cell-based.

The subject of data set [30] is MC-38. The experiment in a line: In vivo antitumor activity against mouse MC-38 cells inoculated in C57BL/6 mouse assessed as increase in moue survival time at 60 mg/kg, po Q3D co-administered with anti-PD1 measured for 15 to 20 days. The data set is classed as functional, organism-based. As to conditions: time 15-20 day.
Data set [31] has as its system MC-38. The experiment in a line: In vivo antitumor activity against mouse MC-38 cells inoculated in C57BL/6 mouse assessed as complete tumor regression (CR) at 60 mg/kg, po Q3D co-administered with anti-PD1 measured for 15 to 20 days. The format is functional. The conditions noted are these: time 15-20 day.
For data set [32], the target named is T2, Stimulator of interferon genes protein. In words: Agonist activity at human STING HAQ variant in human THP1-Blue ISG cells assessed as fold change in stimulation activity measured after 24 hrs incubation by QUANTI-Blue based microplate reader. The format is cell-based.
Target sequence in this assay (Q86WV6 whole entry, looked up, change not shown): as the sequence (Q86WV6 whole entry, looked up, change not shown) above
For data set [33] the target is unchanged. The experiment in a line: Binding affinity to wild type His-tagged STING (unknown origin) measured after 3 hrs incubation by HTRF assay.
Target sequence in this assay (Q86WV6 whole entry): as the sequence (Q86WV6 whole entry, looked up, change not shown) above

pEC50, pIC50: −log10 of the molar value. Activity calls are given as the source filed them.

In general, half-life refers to the time needed for the level to fall by half in the phase considered. By AUC is commonly meant the area under the concentration-time curve, a measure of exposure. A lower AUC goes with less exposure. One may read the CL/F as clearance divided by bioavailability, as obtained after extravascular dosing. The Cmax is the highest concentration seen after dosing. A word on the pEC50: it is the negative decadic logarithm of the EC50, by convention in mol/L. Broadly, the bioavailability is dose-corrected exposure relative to a reference, in per cent. Read a high bioavailability as good availability. In general, clearance refers to the rate of elimination divided by the concentration. Read a high clearance as efficient removal. Broadly, the pIC50 is the IC50 on a negative log10 scale, so that one unit is a factor of ten. Low readings indicate a high IC50, high ones a low IC50.

In the case of `CC[C@H](CNC(=O)c1[se]c2cc(OC)c(OC)cc2c1F)C(=O)O`, the half-life was 66 min in data set [1]; 36 min in data set [6]; greater than 60 min in data set [9]; 48 min in [10]; greater than 60 min in data set [13]. Also, the result (with MC-38 [2]; in the data set on THP1-Blue ISG; with MC-38 [3]; in data set [4]; in the data set on MC-38 [5]; in the data set on MC-38 [8]) was Active. The outcome in the data set with MC-38 [12], in the data set on MC-38 [15], with MC-38 [16], in the data set on THP-1 [18], with MC-38 [23] and in the data set on MC-38 [28] was Active. In addition, in the data set with MC-38 [30], the result was Active. The AUC in data set [7] worked out at 23800 ng·h/mL; in [22] it was 20600 ng·h/mL. In [11], this compound gave a CL/F of 6.94 mL/min/kg. For the same compound, the half-life at 10 µM in data set [14] and in [17] was greater than 60 min each time. The Cmax stood at 20600 ng/mL in data set [19] and 48400 ng/mL in data set [25]. Further, the Activity in the data set with MC-38 [20] is reported as 60%; with MC-38 [31], “Active; Compound Effect Significantly Exceeded Than Its Parent Compound Zsa-52 (Cr = 60%)”. For the same compound, the negative-log EC50 (pEC50) was 5.05 in [21], 5.03 in data set [29] and 5.48 in data set [32]. The bioavailability in data set [24] was found to be 58%. The outcome in the data set on THP-1 [26] was inactive. The compound further showed a clearance in data set [27] of 4.04 mL/min/kg.
For the compound `COc1cc2cc(C(=O)CCC(=O)O)sc2cc1OC`, the half-life in data set [1] is 90 min; in data set [6] it was 18 min. Also, the result in the data set with MC-38 [2] and in the data set on MC-38 [16] was inactive. Moreover, the pIC50 in [33] is 4.65. The exposure (AUC) in data set [7] was determined as 7570 ng·h/mL; in data set [22] it was 7260 ng·h/mL. The compound further gave a CL/F in data set [11] of 22 mL/min/kg. The Cmax worked out at 13400 ng/mL in data set [19] and 25100 ng/mL in [25]. Moreover, the values for the pEC50 in [21], in [29] and in data set [32] were 5.06, 5.09 and 5.36, respectively. The compound also gave a bioavailability in [24] of 52%. In [27], the clearance was 11.5 mL/min/kg.

(Values after ChEMBL document CHEMBL6178018, “Design of an Oral STING Agonist through Intramolecular Hydrogen Bond Ring Mimicking to Achieve Complete Tumor Regression” (J Med Chem, 2025).)
